Marks after values point to notes of the source that are not given here.
Experiments:
[1] = In vitro release study, dialysis method; type: physicochemical; details: PBS pH 6.8, 37°C
Protocol: The THQ release profile from […] […] Briefly, 3 mL of the […] suspension was placed in a dialysis bag (M.W. 12 kDa, Sigma-Aldrich). Each sealed dialysis bag was immersed in 50 mL of PBS (pH 6.8) in a shaking incubator at 37 ± 0.5°C and 100 rpm. Samples were withdrawn from the release medium at specified intervals and replaced with fresh buffer to maintain sink conditions. […] As a control, the release of free THQ and free NTZ was measured under the same conditions. All measurements were performed in triplicate.

Cryptosporidium parvum [2] = experiment: Oocyst shedding in immunosuppressed infected mice; type: in vivo, Swiss albino mice; details: for I % (percent inhibition of oocyst count) / I% (percent inhibition of oocyst count, effectiveness): versus infected untreated group
Protocol: Animals: The study was conducted following approval by the Research Ethics Committee of Zagazig University, Institutional Animal Care and Use Committee (ZU-IACUC), under protocol number ZU-IACUC/2/F/53/2024, following the National Institutes of Health guidelines for animal experimentation. Seventy male laboratory-bred Swiss albino mice free of parasites were included in this study. The mice weighed 20-25 grams at the start of the trial and were between four and six weeks old. They were purchased from the Biological Supply Center of the Theodor Bilharz Research Institute (TBRI). Throughout the trial, the mice were housed in an air-conditioned animal facility maintained at 20-22°C and were provided with a standard commercial pelleted diet and free access to water. […] Immunosuppression: The mice were subjected to immunosuppression by administering dexamethasone (Dexazone, […] Pharmaceuticals, Cairo, Egypt) orally through an esophageal tube at a rate of 0.25 μg/g/day for 14 consecutive days before being inoculated with C. parvum oocysts. Throughout the experiment, the mice received the same dosage of dexamethasone. The infection: In a previous study, we isolated Cryptosporidium oocysts from diarrheal calves and genetically identified them as C. parvum. The 2.5% potassium dichromate solution containing purified oocysts was stored at 4°C until needed. After preparing an infectious inoculum and counting the number of oocysts in the concentrated stock inoculum, the fluid volume of the inoculum per mouse was determined. Oral-gastric gavage was used to infect each mouse orally with C. parvum oocysts. Approximately 3 × 10^3 oocysts/mouse were used to infect each mouse at 0 days post-infection (dpi). […] Thymoquinone loaded on chitosan nanoparticles was given at the same dose for Group VII. Chitosan was administered at 200 mg/kg three times a week, starting at seven dpi for 2 weeks for Group III [36]. Assessments of the drug therapy: Parasitological examination: The mice feces were collected at 7, 14, and 21 dpi. For the oocyst shedding assessment, the number of Cryptosporidium oocysts in the fecal pellets was counted after staining with Kinyoun's acid-fast stain. Fecal samples were collected from each infected mouse. The mean number of oocysts was calculated for each mouse group. After weighing, a milligram of the fecal pellet was placed in 1 milliliter of 10% formalin. Centrifugation concentrated the fecal solution for ten minutes at 7000 rpm. The number of oocysts in one milliliter of the feces sample was calculated using 100 μl of fecal material dried, stained, and observed through an oil immersion lens (x100). The oocyst count was detected and expressed per gram of feces. The effectiveness of each drug was assessed according to [35] and represented as a percentage of reduction using the following formula: Efficacy(%)=100×((infected model group oocyst count-treated model group oocyst count)/(infected model group oocyst count)) %Inhibition = [(mean oocyst count in the infected untreated group - mean oocyst count in the infected treated group)/mean oocyst count in the infected untreated group] × 100

Cryptosporidium parvum [3] = experiment: Histopathological examination and scores of the intestine (H&E); type: in vivo, Swiss albino mice; details: 21 dpi; for Intestinal histopathological findings: H&E, in words
Protocol: At 21 dpi, the mice were humanely euthanized under light anesthesia induced by isoflurane inhalation (Forane®, Baxter, UK). Representative tissue specimens from all animals’ intestines, livers, and spleens were carefully collected and fixed in a 10% neutral buffered formalin solution for 48 hours. Following fixation, the tissues were dehydrated through a graded series of ethyl alcohol concentrations, cleared in xylene, and subsequently embedded in paraffin wax. Two sections, each 5 µm thick, were obtained from each tissue specimen. The sections were then deparaffinized in xylene and rehydrated through a descending series of alcohol concentrations. After rehydration, the tissue sections were mounted onto histological slides and stained with hematoxylin and eosin (H&E) for microscopic examination. The prepared slides were thoroughly analyzed under a light microscope to identify pathological alterations and evaluate the administered drug’s potential ameliorative effects. This standardized protocol ensured accurate and consistent histological assessment across all samples [39]. Histopathological scores for intestine: H&E-stained tissue sections of the intestine were evaluated in a blinded manner by assessing specific histological parameters, including mononuclear cell infiltration in the lamina propria, crypt hyperplasia, depletion or hyperplasia of goblet cells, and alterations in mucosal histoarchitecture. A systematic scoring approach was employed to quantify these histological changes. Histological alterations were counted in 50 randomly selected microscopic fields (captured images; 40 × objective) from each mouse within each experimental group. This method ensured a comprehensive and unbiased assessment of intestinal pathology across all samples [40].

Cryptosporidium parvum [4] = experiment: Histopathological examination of the liver (H&E); type: in vivo, Swiss albino mice; details: 21 dpi, in words
Protocol: (§1) At 21 dpi, the mice were humanely euthanized under light anesthesia induced by isoflurane inhalation (Forane®, Baxter, UK). Representative tissue specimens from all animals’ intestines, livers, and spleens were carefully collected and fixed in a 10% neutral buffered formalin solution for 48 hours. Following fixation, the tissues were dehydrated through a graded series of ethyl alcohol concentrations, cleared in xylene, and subsequently embedded in paraffin wax. Two sections, each 5 µm thick, were obtained from each tissue specimen. The sections were then deparaffinized in xylene and rehydrated through a descending series of alcohol concentrations. After rehydration, the tissue sections were mounted onto histological slides and stained with hematoxylin and eosin (H&E) for microscopic examination. The prepared slides were thoroughly analyzed under a light microscope to identify pathological alterations and evaluate the administered drug’s potential ameliorative effects. This standardized protocol ensured accurate and consistent histological assessment across all samples [39].

Cryptosporidium parvum [5] = experiment: Histopathological examination of the spleen (H&E); type: in vivo, Swiss albino mice; details: 21 dpi, in words
Protocol: as §1

cyclin D1 = experiment: Immunohistochemical staining of cyclin D1 in the intestine; type: in vivo, Swiss albino mice; details: 21 dpi, in words
Protocol: Immunohistochemical examination for detecting intestinal dysplasia using cyclin D1 marker: Three to five-micrometer intestinal tissue sections were deparaffinized using xylene and rehydrated using varying degrees of alcohol. Next, peroxidase activity was blocked using 3% hydrogen peroxide. The Dako target retrieval solution (pH 6.0) was applied for twenty minutes. The sections were treated for one hour with the primary antibody (Anti-Cyclin D1 antibody [SP4], ab 16663, Abcam, UK, diluted 1/100 in PBS). Antibody binding was identified using Dako’s HRP Envision Kit (Dako Cytomation, Denmark).

IFN-γ = experiment: Serum IFN-γ by ELISA; type: in vivo, Swiss albino mice
Protocol: (§2) Immunological measurements: Interleukin-10 (IL-10) and interferon-gamma (IFN-γ) levels in mouse sera were measured. Blood samples were collected in plain tubes from the mice’s retroorbital veins at the indicated time points (14 dpi and 21 dpi). After 30 minutes at room temperature and 15 minutes of centrifugation at 3000 rpm, sera were collected and stored at −20°C. Using an ELISA kit and following the manufacturer’s instructions, the enzyme-linked immunosorbent assay (ELISA) was employed to measure the levels of IFN-γ and IL-10 in the serum (Bioneovan Co.; Ltd, Beijing, China).

IL-10 = experiment: Serum IL-10 by ELISA; type: in vivo, Swiss albino mice
Protocol: as §2

[6] = Pharmacokinetic study after oral administration; type: in vivo, Wistar albino rats; details: rats, oral 20 mg/kg; for AUC(0-t): read-out: AUC₀ → 24; for half-life: read-out: T1/₂ (converted)
Protocol: All groups received an oral dose of 20 mg/kg of their respective formulations. Blood samples (500 μL) were collected from the ocular vein into heparinized tubes at intervals of 0.5, 1, 2, 4, 6, 8, 12, and 24 hours post-administration. The samples were centrifuged at 10,000 rpm for 5 min to isolate plasma stored at −20°C. Plasma samples were deproteinized by adding 1 mL of acetonitrile to each sample, followed by vortexing for 10 min and centrifugation at 6,000 rpm for another 10 min. […] Pharmacokinetic parameters such as peak plasma concentration (Cmax), time to reach peak concentration (Tmax), mean residence time (MRT), area under the curve (AUC), elimination rate constant (Kel), and plasma half-life (t1/2) were calculated using PK Solver 2.0 software through non-compartmental analysis.

L. donovani = system: L. donovani; parameters: method as in Islamuddin et al. [22]; details: in words; ref Islamuddin et al. [22]; cited from earlier work
[7] = 7th day PI (start of treatment), immunosuppressed mice, oral
[8] = 14th day PI, NTZ forms 100 mg/kg/day 5 days, THQ forms and CsNPs 200 mg/kg three times a week, oral from 7 dpi
[9] = 21th day PI, NTZ forms 100 mg/kg/day 5 days, THQ forms and CsNPs 200 mg/kg three times a week, oral from 7 dpi
[10] = Wistar albino, rat, plasma, n = 6

Compound | Count of Cryptosporidium oocysts per gram stool, Mean ± SE (Cryptosporidium parvum [2]; [7]) | I % (percent inhibition of oocyst count) (Cryptosporidium parvum [2]; 14th day PI) [%] | Count of Cryptosporidium oocysts per gram stool, Mean ± SE (Cryptosporidium parvum [2]; [8]) | I% (percent inhibition of oocyst count, effectiveness) (Cryptosporidium parvum [2]; 21th day PI) [%] | Count of Cryptosporidium oocysts per gram stool, Mean ± SE (Cryptosporidium parvum [2]; [9]) | Intestinal histopathological findings (Cryptosporidium parvum [3]) | Morphometric indices: Villus width (Cryptosporidium parvum [3]; intestine) | Lesion frequency: Epithelial necrosis (Cryptosporidium parvum [3]; intestine, mean ± SE) | Lesion frequency: Goblet cell hyperplasia (Cryptosporidium parvum [3]; intestine, mean ± SE) | Lesion frequency: Mucosal erosion (Cryptosporidium parvum [3]; intestine, mean ± SE) | Lesion frequency: Mucosal ulceration (Cryptosporidium parvum [3]; intestine, mean ± SE) | Lesion frequency: Mucosal-associated lymphocyte hyperplasia (Cryptosporidium parvum [3]; intestine, mean ± SE) | Lesion frequency: Vascular congestion (Cryptosporidium parvum [3]; intestine, mean ± SE) | Lesion frequency: Villus atrophy (Cryptosporidium parvum [3]; intestine, mean ± SE) | Lesion frequency: Villus fusion (Cryptosporidium parvum [3]; intestine, mean ± SE) | Morphometric indices: Thickness of lamina propria (Cryptosporidium parvum [3]; intestine, mean ± SE) | Morphometric indices: Thickness of muscular layer per image (Cryptosporidium parvum [3]; intestine, mean ± SE) | Morphometric indices: Villus height (Cryptosporidium parvum [3]; intestine, mean ± SE) | Morphometric indices: Villus surface area (Cryptosporidium parvum [3]; intestine, mean ± SE) | Liver histopathological findings (Cryptosporidium parvum [4]) | further results
CC(=O)Oc1ccccc1C(=O)Nc1ncc([N+](=O)[O-])s1 [NTZ, nitazoxanide, reference compound] | 307.3 ± 3 ^Aa x10^3 per gram stool | 53 | 146.8 ± 2.9 ^Bc x10^3 per gram stool | 54 | 145.5 ± 2.6 ^Bc x10^3 per gram stool | persistent villous atrophy and mild improvement in histopathological alterations | 91.2^A | 9 ± 0.58^B | 21.5 ± 0.76^B | 16 ± 0.58^B | 9.83 ± 0.6^B | 21 ± 0.58^C | 21 ± 0.97^B | 10 ± 0.58^B | 5.17 ± 0.31^B | 174.33 ± 1.05^B | 65.87 ± 0.59^BC | 298.67 ± 2.4^C | 27609.37 ± 307.03^C | partial improvement | drug release ([1]; first eight hours): 100%; Spleen histopathological findings (Cryptosporidium parvum [5]): partial improvement with mild hyperplasia of lymphoid elements; cyclin D1 immunostaining of the intestine (cyclin D1): Moderate immunostaining; IFN-γ serum level, Mean ± SE (IFN-γ; 14 days post-infection): 37.1 ± 1.2 ^b; IFN-γ serum level, Mean ± SE (IFN-γ; 21 days post-infection): 28.1 ± 1.3 ^b; IL-10 serum level, Mean ± SE (IL-10; 14 days post-infection): 16.9 ± 0.6 cd; IL-10 serum level, Mean ± SE (IL-10; 21 days post-infection): 30.9 ± 0.3 ^c; concentration at 0.5 h ([6]; Wistar albino, rat, plasma): 24900 ± 9110 ng/mL; concentration at 12 h ([6]; Wistar albino, rat, plasma): 4160 ± 2710 ng/mL; concentration at 24 h ([6]; Wistar albino, rat, plasma): 1390 ± 890 ng/mL; AUC [6, 10]: 1440 ± 49.4 µg·h/mL; AUC(0-inf) [6, 10]: 1470 ± 52.3 µg·h/mL; Cmax [6, 10]: 53200 ± 4950 ng/mL; Tmax [6, 10]: 2 h; AUC(0-t) [6, 10]: 1440 ± 48.7 µg·h/mL; half-life [6, 10]: 6.55 ± 0.54 h; Kel ([6]; n = 6): 0.105 ± 0.0087 h˦ ¹
CC1=CC(=O)C(C(C)C)=CC1=O [THQ, 2-isopropyl-5-methyl-1,4-benzoquinone] | 300 ± 3.1 ^Aa x10^3 per gram stool | 75 | 78 ± 1.5 ^Bd x10^3 per gram stool | 77 | 72 ± 2.6 ^Cd x10^3 per gram stool | greater improvement than the NTZ-treated group | 91.4^A | 7.5 ± 0.43^B | 20.67 ± 0.49^BC | 14.83 ± 0.65^B | 8.83 ± 0.48^B | 22 ± 0.68^C | 18.5 ± 0.85^B | 9.83 ± 0.87^B | 4.83 ± 0.17^B | 170.33 ± 1.15^BC | 64.35 ± 0.2^C | 302 ± 2.35^C | 27975.53 ± 357.01^C | partial improvement | drug release ([1]; after 12 hours): 100%; Morphometric indices: Crypt depth (Cryptosporidium parvum [3]; intestine, mean ± SE): 79.7 ± 0.22^AB; Spleen histopathological findings (Cryptosporidium parvum [5]): partial improvement with mild hyperplasia of lymphoid elements; cyclin D1 immunostaining of the intestine (cyclin D1): Moderate immunostaining; IFN-γ serum level, Mean ± SE (IFN-γ; 14 days post-infection): 36.8 ± 1.5 ^b; IFN-γ serum level, Mean ± SE (IFN-γ; 21 days post-infection): 29.3 ± 0.6 ^ab; IL-10 serum level, Mean ± SE (IL-10; 14 days post-infection): 18.5 ± 0.6^bc; IL-10 serum level, Mean ± SE (IL-10; 21 days post-infection): 33.3 ± 0.4 ^bc; concentration at 0.5 h ([6]; Wistar albino, rat, plasma): 9790 ± 3250 ng/mL; concentration at 12 h ([6]; Wistar albino, rat, plasma): 4880 ± 1790 ng/mL; concentration at 24 h ([6]; Wistar albino, rat, plasma): 4190 ± 1580 ng/mL; AUC [6, 10]: 340 ± 13.6 µg·h/mL; AUC(0-inf) [6, 10]: 630 ± 22.1 µg·h/mL; Cmax [6, 10]: 43600 ± 7920 ng/mL; MRT [6, 10]: 6.97 ± 1.32 h; Tmax [6, 10]: 4 h; AUC(0-t) [6, 10]: 316 ± 12.5 µg·h/mL; half-life [6, 10]: 53.2 ± 4.88 h; Kel ([6]; n = 6): 0.013 ± 0.0012 h˦ ¹; leishmanicidal activity (L. donovani): significant leishmanicidal activity
